From patent US20230338392A1, “SUBCUTANEOUS ADMINISTRATION OF AN ASBT INHIBITOR” (Albireo AB, priority 2022, published 2023)

Columns and labels:
[1] = Plasma concentration following subcutaneous or intravenous administration; format: in vivo, male C57BL/6 mice
Experimental: Elobixibat was administered to male C57BL/6 mice (n=5) as a subcutaneous injection at a dose of 3 or 10 mg/kg or as an intravenous injection at a dose of 1 mg/kg (single injections), or as repeated subcutaneous injections at a dose of 1 mg/kg at day 1 and day 5. Elobixibat was formulated in 70% PEG400; 10% ethanol; and 20% water and given at a dosing volume of 5 mL/kg subcutaneously or 1 mL/kg intravenously. Blood samples were collected after 0.25, 0.5, 1, 2, 4, 6, 8 and 24 hours following subcutaneous administration and after 0.083, 0.25, 0.5, 1, 2, 4, 6, 8 and 24 hours following intravenous administration. Blood samples were taken from saphenous vein. 0.2% EDTA was used as the anticoagulant. The samples were analyzed by a discovery grade bioanalytical method developed for the estimation of elobixibat in plasma, using an LC-MS/MS system.
The results for single subcutaneous (3 or 10 mg/kg) and intravenous (1 mg/kg) administrations are shown in FIG. 1, and the results for repeated subcutaneous administrations (1 mg/kg at day 1 and day 5) are shown in FIG. 2.

DDC mice = assay: DDC in vivo model of cholestatic disease: serum chemistries; parameters: species or system male C57BL/6J WT mice
Text: (§1) Chronic feeding of 3,5-diethoxycarbonyl-1,4-dihydrocollidine (DDC) was used as an in vivo model for cholestatic liver injury. Chronic feeding of DDC produces an intraductal porphyrin plug which leads to ductular obstruction contributing to damage of biliary epithelia. The time course of the DDC model usually ranges from 1 to 6 weeks, depending on the severity of the cholangiopathy that the study requires. Chronic feeding of DDC in mice reproduces the main histopathological hallmarks of human cholestatic disease such as (1) remodeling of biliary compartments giving rise to ductular reaction, (2) periductular fibrosis, and (3) inflammatory infiltrate (Mariotti et al., Biochim Biophys Acta Mol Basis Dis 2018, vol. 1864, p. 1254-1261; Pose et al., Methods Mol. Biol. 2019, vol. 1981, p. 249-257).
(§2) Male C57BL/6J WT mice of 8 weeks old were used. After completion of quarantine and acclimatization period, animals were randomized based on body weight into experimental groups (n=7-9/group). Animals were fed chow (control diet) or chow plus 0.1% DDC (DDC diet) for 14 days, and treated once daily with vehicle (s.c.) or the ASBT inhibitor elobixibat at a dose of 0.3, 1.0 or 3.0 mg/kg (s.c.), as shown in Table 1. Animals were weighed at days 7, 11 and 14. Blood samples were collected at day 7. On day 11, animals were moved to individual cages with wire bottom for fecal collection. Blood, urine, tissue samples and 3-day fecal samples were collected at day 14.
Endpoints measured at the end of the study include fecal bile acid excretion, urine and serum bile acid concentration and composition, and serum chemistries reflecting liver status.

[2] = test system: KIM-1 (kidney injury molecule-1); assay: DDC model: mRNA expression of renal proximal tubule cell injury marker KIM-1; format: in vivo, male C57BL/6J WT mice; settings: DDC cholestatic mice, s.c. elobixibat versus vehicle, 14 days (FIG. 6)
Text: as §1
as §2, with “Blood, urine, tissue samples and 3-day fecal samples were collected at day 14.” left out

LCN2 (lipocalin-2) = assay: DDC model: mRNA expression of renal proximal tubule cell injury marker LCN2; format: in vivo, male C57BL/6J WT mice; settings: DDC cholestatic mice, s.c. elobixibat versus vehicle, 14 days (FIG. 7)
Text: as §1
as §2, with “Blood, urine, tissue samples and 3-day fecal samples were collected at day 14.” left out

[3] = subcutaneous administration (FIG. 1)

clearance ([1]; intravenous administration (FIG. 1)): quick clearance
bioavailability [1, 3]: high bioavailability
duration of constant exposure [1, 3]: more than 24 hours
Compound: CCCCC1(CCCC)CN(c2ccccc2)c2cc(SC)c(OCC(=O)N[C@@H](C(=O)NCC(=O)O)c3ccccc3)cc2S(=O)(=O)C1 [elobixibat, 1,1-dioxo-3,3-dibutyl-5-phenyl-7-methylthio-8-(N-{(R)-1′-phenyl-1′-[N′-(carboxymethyl)-carbamoyl]methyl}carbamoylmethoxy)-2,3,4,5-tetrahydro-1,5-benzothiazepine]
serum alkaline phosphatase (ALP) levels (DDC mice; s.c. once daily 0.3, 1.0 or 3.0 mg/kg for 14 days (FIG. 5)): dose-dependent trend towards reduced
serum bile acids (DDC mice; s.c. once daily 0.3, 1.0 or 3.0 mg/kg for 14 days, reduced at lowest dose, no additional reduction at higher doses (FIG. 3)): statistically significant reduction
serum total bilirubin (DDC mice; s.c. once daily 0.3, 1.0 or 3.0 mg/kg for 14 days, reduced at lowest dose, no additional reduction at higher doses (FIG. 4)): statistically significant reduction
mRNA expression for KIM-1 [2]: reduced
mRNA expression for LCN2 (LCN2 (lipocalin-2)): reduced
